According to paper PMC9031227, “Structure-Activity Relationship Investigations of Novel Constrained Chimeric Peptidomimetics of SOCS3 Protein Targeting JAK2” (Pharmaceuticals, 2022):
Entries after “also recorded” stand apart in the source; their conditions may differ. Where a SMILES comes first, the peptide text is derived from it. Bridges are numbered along the chain shown (N, C = ends). [ ]: non-standard residue; d: D form. R8 = C=CCCCCCC[C@@](C)(N)C(=O)O; S5 = C=CCCC[C@](C)(N)C(=O)O; βAla = NCCC(=O)O

Experiments:
[1] = biological target: T1, His-tagged Catalytic Domain of JAK2 (residues 826–1132) (Homo sapiens, UniProt O60674); assay: MicroScale Thermophoresis (MST) binding to JAK2 catalytic domain; details: RED-tris-NTA labelled His-JAK2 catalytic domain, 25 °C, 50 mM Tris-HCl, 150 mM NaCl, 0.05% Brij35, 1 mM DTT, 10% glycerol, 15% TFE, pH 7.5, Langmuir isotherm fit
T1 construct: His-tagged Catalytic Domain of JAK2 (residues 826–1132); purchased Carna Biosciences
Experimental: MST experiments were carried out with a Monolith NT 115 system (NanoTemper Technologies, München, Germania) equipped with 40% LED and 40% IR-laser power. […] The protein concentration was adjusted to 200 nM in labeling buffer (Nano Temper Technologies), while the dye concentration was set to 100 nM. Equal volumes (100 μL) of protein and fluorescent dye solutions were mixed and incubated at room temperature in the dark for 30 min. KIRCONG chim analogues were used in the following concentrations: KIRCONG amide 459 μM, KIRCONG disulfide 470 μM, KIRCONG i/i+5 525 μM, and KIRCONG i/i+7 585 μM in labeling buffer. Standard capillaries were employed for analysis, at 25 °C in 50 mM Tris-HCl, 150 mM NaCl, 0.05% Brij35, 1 mM DTT, 10% glycerol, 15% TFE buffer at pH 7.5, as already reported. The equation implemented by the software MO-S002 MO Affinity Analysis, used for fitting data at different concentrations, is based on Langmuir binding isotherm.
To evaluate the ability of KIRCONG analogues to recognize JAK2 catalytic domain, in vitro MST experiments were carried out (Figure 5), keeping JAK2 concentration constant and increasing ligands’ concentrations.

[2] = Serum stability in fetal bovine serum; assay type: in vitro ADME; details: 37 °C; for improvement of stability to proteases after 24 h: 25% FBS, 24 h of analysis, compared with the linear peptide; for metabolised at 3 h, 500 µM: read-out: degraded after 3 h of incubation
Experimental: KIRCONG analogues (~1 mg/mL, 500 μM on average), were incubated with fetal bovine serum (FBS) at 25% (w/v) at 37 °C as previously described. At the following time points: 0, 3, 17, 20, 23 and 42 h, 50 µL aliquots of the solutions were mixed with 50 µL of 15% trichloroacetic acid (TCA) to allow the precipitation of serum proteins, they were stored at −20 °C for at least 15 min. After centrifugation (13,000 rpm for 15 min) the supernatants were recovered. Samples were analyzed by RP-HPLC on a HPLC LC-4000 series (Jasco) equipped with UV detector using a C18-Kinetek column from Phenomenex (Milan, Italy), by employing a gradient from 5 to 70% of B (acetonitrile 0.1% TFA) versus A (water 0.1% TFA) in 20 min. Peptide compounds were detected by recording the absorbance at 210 nm and percentages were quantified by assuming 100% their peak areas at t = 0. All stability tests were performed at least in triplicates and reported data are averaged values.
To evaluate if introduced chemical modifications in KIRCONG analogues influence their stabilities to proteolytic degradation, pure compounds were incubated with fetal bovine serum (FBS) and the decrease of chromatographic peaks was followed during time In Figure 4, the area percentages of new derivatives of KIRCONG chim versus time are reported. After 3 h of incubation, KIRCONG chim is degraded by 30% while KIRCONG disulfide of 20% and others less than 10%.
Figure 4 Serum stability assay of KIRCONG chim derivatives. The serum stability was evaluated by incubation in 25% FBS for 42 h. Residual peptide amount is expressed as the percentage of the initial amount versus time.

[3] = Solubility observations in TFE/aqueous mixtures (CD and NMR samples); assay type: physicochemical
Experimental: CD spectroscopy experiments were carried out by employing a Jasco J-815 spectropolarimeter (JASCO, Tokyo, Japan), at room temperature in the spectral range 190–260 nm and spectra are averaged over two scans, to which blanks were subtracted. CD signals were converted to mean residue ellipticity with deg* cm^2*dmol^−1*res^−1 as units. Scan speed value was 20 nm/min, band width 2.0 nm, resolution 0.2 nm, sensitivity 50 mdeg and response 4 s. Samples were prepared by dilution of freshly prepared stock solutions in 100% TFE (2,2,2-Trifluoroethanol) (1 mM on average). In the CD samples compound concentrations were 100 μM. Spectra were acquired in a quartz cuvette with a path-length of 0.1 cm in mixtures TFE/phosphate buffer, 10 mM at pH 7.4 [52].
NMR spectra of KIRCONG i/i+5 and KIRCONG i/i+7 stapled peptides were registered at 25 °C on a Varian Unity Inova 600 MHz spectrometer provided with a cold probe. […] NMR spectra for KIRCONG i/i+7 were recorded in H2O/TFE 60/40 v/v (peptide concentration 411 μM, pH 4.65). […] To conduct NMR structural analyses the following 2D [^1H, ^1H] experiments were recorded: TOCSY (Total Correlation Spectroscopy), NOESY (Nuclear Overhauser Enhancement Spectroscopy), ROESY (Rotating Frame Overhauser Enhancement Spectroscopy) and DQFCOSY (Double Quantum-Filtered Correlated Spectroscopy). […]

[4] = 25% (w/v) fetal bovine serum, 25% (w/v) FBS, peptide ~1 mg/mL (500 µM on average), TCA precipitation, RP-HPLC C18, UV 210 nm, peak area vs t = 0, mean of at least triplicates

T1 sequence (O60674 826-1132): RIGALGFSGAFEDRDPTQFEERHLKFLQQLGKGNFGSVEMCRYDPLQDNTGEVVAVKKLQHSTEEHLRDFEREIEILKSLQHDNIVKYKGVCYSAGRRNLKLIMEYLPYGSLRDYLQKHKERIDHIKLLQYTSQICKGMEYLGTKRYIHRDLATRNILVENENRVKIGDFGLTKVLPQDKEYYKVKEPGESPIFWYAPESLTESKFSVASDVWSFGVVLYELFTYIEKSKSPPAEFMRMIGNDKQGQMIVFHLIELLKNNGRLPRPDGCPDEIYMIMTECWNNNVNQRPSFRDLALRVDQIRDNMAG

Compound | Kd [1] [µM] | improvement of stability to proteases after 24 h [2] | metabolised at 3 h, 500 µM [2, 4] [%] | KD [1] | other results
CC(C)C[C@@H]1NC(=O)[C@H](CCC(N)=O)NC(=O)[C@H](Cc2ccc(O)cc2)NC(=O)[C@H](CCC(=O)O)NC(=O)[C@H](CO)NC(=O)[C@H](CCCCN)NC(=O)[C@H](CO)NC(=O)[C@H](CO)NC(=O)[C@H](Cc2ccccc2)NC(=O)CCNC(=O)[C@@H](N)CCCCNC(=O)CC[C@@H](C(=O)NCC(=O)O)NC(=O)[C@H]([C@@H](C)O)NC(=O)[C@H](C(C)C)NC(=O)[C@H](C)NC(=O)[C@H](CO)NC(=O)[C@H](Cc2c[nH]c3ccccc23)NC(=O)[C@H](Cc2ccc(O)cc2)NC(=O)[C@H](Cc2ccccc2)NC(=O)CCNC(=O)CCNC1=O [KIRCONG amide] (H-K[βAla]FSSKSEYQL[βAla][βAla]FYWSAVTEG-OH; lactam 1-21) | 200 | do not produce a significant improvement of stability | – | – | –
CC(=O)N[C@@H](CCCCN)C(=O)NCCC(=O)N[C@@H](Cc1ccccc1)C(=O)N[C@@H](CO)C(=O)N[C@@H](CO)C(=O)N[C@@H](CCCCN)C(=O)N[C@@H](CO)C(=O)N[C@@H](CCC(=O)O)C(=O)N[C@@H](Cc1ccc(O)cc1)C(=O)N[C@@H](CCC(N)=O)C(=O)N[C@@H](CC(C)C)C(=O)NCCC(=O)NCCC(=O)N[C@@H](Cc1ccccc1)C(=O)N[C@@H](Cc1ccc(O)cc1)C(=O)N[C@@H](Cc1c[nH]c2ccccc12)C(=O)N[C@@H](CO)C(=O)N[C@@H](C)C(=O)N[C@H](C(=O)N[C@H](C(N)=O)[C@@H](C)O)C(C)C [KIRCONG chim, reference compound] (Ac-K[βAla]FSSKSEYQL[βAla][βAla]FYWSAVT-NH2) | – | – | 30 | – | residual concentration after 42 h ([2]; 25% (w/v) FBS, peptide ~1 mg/mL (500 µM on average), 42 h, TCA precipitation, RP-HPLC C18, UV 210 nm, peak area vs t = 0, mean of at least triplicates): completely degraded
CC(C)C[C@@H]1NC(=O)[C@](C)(NC(=O)[C@H](Cc2ccc(O)cc2)NC(=O)[C@H](CCC(=O)O)NC(=O)[C@H](CO)NC(=O)[C@H](CCCCN)NC(=O)[C@H](CO)NC(=O)[C@H](CO)NC(=O)[C@@H](N)Cc2ccccc2)CCCCCC/C=C/CCC[C@@](C)(C(=O)N[C@H](C(=O)N[C@H](C(=O)NCC(=O)O)[C@@H](C)O)C(C)C)NC(=O)[C@H](CO)NC(=O)[C@H](Cc2c[nH]c3ccccc23)NC(=O)[C@H](Cc2ccc(O)cc2)NC(=O)[C@H](Cc2ccccc2)NC(=O)CCNC1=O [KIRCONG i/i+7] (H-FSSKSEY[R8]L[βAla]FYWS[S5]VTG-OH; staple (E) 8-15) | – | – | – | did not allow to obtain KD values; also recorded: No binding | solubility at NMR concentration in 15% TFE ([3]; H2O/TFE 85/15 v/v, NMR peptide concentration 411 µM): poorly soluble; solubility in TFE/phosphate buffer (CD sample) ([3]; TFE/phosphate buffer 10 mM pH 7.4, CD sample concentration 100 µM, diluted from 100% TFE stock): not soluble
CC(C)C[C@H](NC(=O)[C@H](CCC(N)=O)NC(=O)[C@H](Cc1ccc(O)cc1)NC(=O)[C@H](CCC(=O)O)NC(=O)[C@H](CO)NC(=O)[C@H](CCCCN)NC(=O)[C@H](CO)NC(=O)[C@H](CO)NC(=O)[C@@H](N)Cc1ccccc1)C(=O)NCCC(=O)N[C@@]1(C)CCCC=CCCC[C@@](C)(C(=O)N[C@H](C(=O)N[C@H](C(=O)NCC(=O)O)[C@@H](C)O)C(C)C)NC(=O)[C@H](CO)NC(=O)[C@H](Cc2c[nH]c3ccccc23)NC(=O)[C@H](Cc2ccc(O)cc2)NC(=O)[C@H](Cc2ccccc2)NC1=O [KIRCONG i/i+5] (H-FSSKSEYQL[βAla][S5]FYWS[S5]VTG-OH; staple 11-16) | – | – | – | did not allow to obtain KD values; also recorded: No binding | remaining at 42 h, 500 µM ([2]; 25% (w/v) fetal bovine serum, 25% (w/v) FBS, peptide ~1 mg/mL (500 µM on average), 42 h, TCA precipitation, RP-HPLC C18, UV 210 nm, peak area vs t = 0, mean of at least triplicates, read-out: residual concentration after 42 h): 85%
CC(C)C[C@@H]1NC(=O)[C@H](CCC(N)=O)NC(=O)[C@H](Cc2ccc(O)cc2)NC(=O)[C@H](CCC(=O)O)NC(=O)[C@H](CO)NC(=O)[C@H](CCCCN)NC(=O)[C@H](CO)NC(=O)[C@H](CO)NC(=O)[C@H](Cc2ccccc2)NC(=O)CCNC(=O)[C@@H](N)CSSC[C@@H](C(=O)NCC(=O)O)NC(=O)[C@H]([C@@H](C)O)NC(=O)[C@H](C(C)C)NC(=O)[C@H](C)NC(=O)[C@H](CO)NC(=O)[C@H](Cc2c[nH]c3ccccc23)NC(=O)[C@H](Cc2ccc(O)cc2)NC(=O)[C@H](Cc2ccccc2)NC(=O)CCNC(=O)CCNC1=O [KIRCONG disulfide] (H-C[βAla]FSSKSEYQL[βAla][βAla]FYWSAVTCG-OH; disulfide 1-21) | 600 | do not produce a significant improvement of stability | 20 | – | –
